Values of other authors, collected in patent publication US8728553B2, “Vitamin containing product” (Nattopharma ASA, priority 2000, dated 2014).

Details: intake of 5 g butter to which 800 μg MK-4 had been added (equivalent to 16 mg MK-4 per 100 g butter)

- MK-4 levels in blood serum: increased
Structure (SMILES): CC(C)=CCC/C(C)=C/CC/C(C)=C/CC/C(C)=C/CC1=C(C)C(=O)c2ccccc2C1=O [MK-4, menaquinone (MK-4)]
